Patent EP0633316A1, “Lys-aminopeptidase PepN from lactobacillus delbruckii ssp. Lactis, nucleic acids coding for it, and its use in fermentation processes” (EUROPEAN ECONOMIC COMMUNITY E.E.C., priority 1993, dated 1995)
Where two headings read alike, the source gives them in different places. Non-standard residues stand in square brackets, D forms with d. Residues, ends and D or L forms follow the SMILES beside them. *: point of attachment. Sta = CC(C)C[C@H](N)[C@@H](O)CC(=O)O; pNA = O=[N+]([O-])c1ccc(N*)cc1; Isovaleryl = CC(C)CC(=O)*

T1: PepN (Lactobacillus delbrueckii subsp. lactis, UniProt P37896)
T1 construct: made in house; host or cells: E. coli CM89 (pepN-deficient) harbouring plasmid pUK13
T1 sequence (P37896 1-843): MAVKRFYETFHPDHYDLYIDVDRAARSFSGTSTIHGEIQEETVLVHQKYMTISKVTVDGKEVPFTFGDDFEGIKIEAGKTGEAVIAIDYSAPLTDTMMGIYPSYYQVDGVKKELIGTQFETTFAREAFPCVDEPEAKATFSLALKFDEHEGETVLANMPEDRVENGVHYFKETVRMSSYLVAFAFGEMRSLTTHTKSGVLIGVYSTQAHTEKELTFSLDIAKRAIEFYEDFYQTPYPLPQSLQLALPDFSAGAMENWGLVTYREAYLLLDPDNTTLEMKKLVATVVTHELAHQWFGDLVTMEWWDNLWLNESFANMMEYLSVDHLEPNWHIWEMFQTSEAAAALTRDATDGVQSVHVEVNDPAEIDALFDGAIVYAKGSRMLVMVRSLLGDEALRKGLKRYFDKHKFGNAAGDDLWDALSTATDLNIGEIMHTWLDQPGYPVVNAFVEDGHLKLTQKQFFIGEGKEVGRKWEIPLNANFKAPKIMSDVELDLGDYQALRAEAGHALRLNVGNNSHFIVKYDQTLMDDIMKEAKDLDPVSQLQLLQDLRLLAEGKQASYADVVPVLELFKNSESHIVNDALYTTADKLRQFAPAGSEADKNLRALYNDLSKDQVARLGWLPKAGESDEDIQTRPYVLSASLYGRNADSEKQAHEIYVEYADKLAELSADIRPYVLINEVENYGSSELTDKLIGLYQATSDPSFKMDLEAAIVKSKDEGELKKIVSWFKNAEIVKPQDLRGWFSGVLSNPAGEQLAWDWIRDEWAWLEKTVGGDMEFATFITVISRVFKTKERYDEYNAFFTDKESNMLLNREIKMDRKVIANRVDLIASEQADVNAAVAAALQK

B1: PepN (Lactobacillus delbrueckii subsp. lactis) (protein)
chain: T1 sequence (P37896 1-843)
notes: made in house; host or cells: E. coli CM89 (pepN-deficient) harbouring plasmid pUK13

Columns and labels:
Assay type in all cases: biochemical, Lactobacillus delbrückii ssp. lactis
PepN [1] = biological target: T1, PepN; assay: Substrate specificity of purified PepN against p-nitroanilide substrates; conditions: p-nitroanilide substrates 1 mM, 10 min at 37°C, Tris-HCl 10 mM pH 8.0
Protocol: (§1) For characterization of the enzyme the p-nitroanilide subtrates (Bachem) were dissolved in water and added to the reaction mixture [Tris-HCl 10 mM, pH 8.0, and varying amounts of purified enzyme (1-200 ng)] to a concentration of 1 mM in a volume of 250 µl. Release of p-nitroaniline was measured after a 10 min incubation at 37°C at […] in a LKB Ultrospec plus spectrophotometer. For rapid screening of active fractions during purification of the enzyme, samples were prepared in micro titer plates and measured in a BIORAD model 2550 EIA reader.

PepN [2] = biological target: T1, PepN; assay: biochemical; conditions: for activity at 1000 µM: read-out: relative activity
Protocol: The percentages of relative activity indicated above, correspond to residual activities after addition of the inhibitor as compared with the control without inhibitor. The conditions and methods for determination are taken from "Proteolytic enzymes, a practical approach, Beynon R.J. and Bond J.S., Oxford University Press 1989." (Chapter 4, Determination of protease mechanism, Ben M. Dunn).
as §1
To study the mechanism of enzyme action, the inhibitors phenylmethansulphonyl fluoride (PMSF) at a concentration of 1 mM, pepstatin A at 1 µg/ml, L-trans-epoxysuccinyl-leucylamide(4-guanidino)-butane (E-64) at 0.1 mM, and 1,10-phenanthroline or EDTA at 1 mM were added to the enzyme and incubated for 30 min at 37°C. The substrate lys-p-nitroanilide was added and activity was measured spectrophotometrically by the release of p-nitroaniline.

[3] = substrate: NCCCC[C@H](N)C(=O)Nc1ccc([N+](=O)[O-])cc1; assay: Substrate specificity of purified PepN against p-nitroanilide substrates; conditions: other: Lineweaver-Burk plot; pH 8.0; 37.0 °C
Protocol: as §1

[4] = PMSF 1 mM, pepstatin A 1 µg/ml, E-64 0.1 mM, 1,10-phenanthroline or EDTA 1 mM, 30 min at 37°C, substrate lys-p-nitroanilide

Row | Molecule | relative activity (%) (PepN [1]) | other results
1 | C[C@H](N)C(=O)N1CCC[C@H]1C(=O)Nc1ccc([N+](=O)[O-])cc1 [Ala-Pro-pNA] (H-Ala-Pro-pNA) | 0% | 
2 | C[C@H](N)C(=O)Nc1ccc([N+](=O)[O-])cc1 [Ala-pNA] | 12% | 
3 | CC(C)CC(NC(=O)C1OC1C(=O)O)C(=O)NCCCCN=C(N)N [E-64, L-trans-epoxysuccinyl-leucylamide(4-guanidino)-butane] |  | effect on enzyme activity (PepN [2]; [4]): no effect
4 | O=C(O)CN(CCN(CC(=O)O)CC(=O)O)CC(=O)O [EDTA] |  | effect on enzyme activity (PepN [2]): full inhibition; activity at 1000 µM (PepN [2]): 3%
5 | NCC(=O)Nc1ccc([N+](=O)[O-])cc1 [Gly-pNA] | 1% | 
6 | CC(C)C[C@H](N)C(=O)Nc1ccc([N+](=O)[O-])cc1 [Leu-pNA] | 19% | 
7 | NCCCC[C@H](N)C(=O)Nc1ccc([N+](=O)[O-])cc1 [Lys-pNA, lys-p-nitroanilide] | 100% | 
8 | O=S(=O)(F)Cc1ccccc1 [PMSF, phenylmethansulphonyl fluoride] |  | effect on enzyme activity (PepN [2]; [4]): no effect
9 | CC(C)CC(=O)N[C@H](C(=O)N[C@H](C(=O)N[C@@H](CC(C)C)[C@@H](O)CC(=O)N[C@@H](C)C(=O)N[C@@H](CC(C)C)[C@@H](O)CC(=O)O)C(C)C)C(C)C [Pepstatin A, pepstatin A] (Isovaleryl-VV[Sta]A[Sta]-OH) |  | effect on enzyme activity (PepN [2]; [4]): no effect
10 | N[C@@H](Cc1ccccc1)C(=O)Nc1ccc([N+](=O)[O-])cc1 [Phe-pNA] | 8% | 
11 | c1cnc2c(c1)ccc1cccnc12 [Phenanthroline, 1,10-phenanthroline] |  | effect on enzyme activity (PepN [2]; [4]): full inhibition; activity at 1000 µM (PepN [2]; end concentration 1 mM, residual activity after addition of the inhibitor compared with control without inhibitor): 4%
12 | O=C(Nc1ccc([N+](=O)[O-])cc1)[C@@H]1CCCN1 [Pro-pNA] | 2% | 
13 | N[C@@H](Cc1ccc(O)cc1)C(=O)Nc1ccc([N+](=O)[O-])cc1 [Tyr-pNA] | 2% | 
14 | B1 |  | Km [3]: 70 µM
